Where two headings read alike, the source gives them in different places.

One series concerns OGD/R‐treated HT22 cells. The series can be described thus: Neuroprotective effect on OGD/R-treated HT22 cells, cell viability by CCK-8. The series is classed as cell-based. The conditions noted are these: 6 h OGD; for viability at 2 µM / viability at 20 µM: Mus musculus, HT-22, 24 h reoxygenation with compound, relative to control cells, mean ± S.D., n = 3. How it is done:
HT22 cells were washed with phosphate buffered saline (PBS), then DMEM sugar‐free medium (Gibco, USA) was added and placed in the anaerobic incubator of 5% CO2, 1% O2, and 37 °C for 6 h. PB3 or other compounds were previously dissolved in DMEM/F‐12 with 10% FBS and 1% penicillin/streptomycin. After undergoing OGD for 6 h, the medium was replaced by DMEM/F‐12 with 10% FBS and 1% penicillin/streptomycin containing PB3 or other compounds and kept in a humidified 5% CO2, 37 °C incubator for 24 h.
The CCK‐8 assay kit (Yeasen, China) was used to assess cell viability. All operations were performed following instructions. HT22 cells were seeded into the 96‐well plate (3000 cells per well). The cells were cultured at 37 °C with 5% CO2 in a humidified incubator overnight. After 6 h of OGD, the medium was replaced by DMEM/F‐12 with 10% FBS and 1% penicillin/streptomycin containing PB3 or other compounds and kept in a humidified 5% CO2, 37 °C incubator for 24 h. Then, the cells were washed with PBS, the medium was replaced with DMEM/F‐12 with 10% FBS and 1% penicillin/streptomycin containing 10% CCK‐8 solution, and incubated for 1 h at 37 °C. The absorbance was assessed by a Synergy H1 multi‐mode microplate reader (BioTek, USA) at 450 nm.

The nature of series [1]: Pharmacokinetic study in mice, i.p. injection. As to conditions: C57BL/6, mouse, ip, 48 mg kg^−1 i.p., plasma, mean ± S.D., n = 3. It counts as in vivo. How it is done:
Pharmacokinetic analyses were performed using a LC‐40D XS HPLC system (Shimadzu, Japan) coupled with a Sciex Triple Quad 5500 mass spectrometer (AB SCIEX, USA). Tested compounds PB3 and 6c were administered by i.p. injection (48 mg kg^−1, formulation solvent: normal saline). Blood samples were drawn from the retro‐orbital vein at 0.083, 0.25, 0.5, 1, 2, 4, 8, and 24 h post‐injection with EDTA dipotassium salt as an anticoagulant. Subsequently, the plasma fractions were collected in Eppendorf tubes and centrifuged at 4000 g for 5 min at 4 °C and stored at −80 °C for analysis. Brain tissue was mixed with four‐fold normal saline for homogenization (10 s per time with a 10 s interval for 3–5 times). Then, the mixture was centrifuged at 4000 g for 5 min at 4 °C, and the supernatant was stored at −80 °C for analysis. For sample preparation, the desired serial concentrations of working solutions were achieved by diluting a stock solution of analyte with 50% methanol in water solution. 2 µL of working solutions were added to 10 µL of the blank C57BL/6 mouse plasma/brain homogenate to achieve calibration standards of 10–10 000 ng mL^−1 (10, 20, 100, 200, 1000, 2000, 4000, 10 000 ng mL^−1) in a total volume of 12 µL. Three quality control samples at 20 ng mL^−1, 1600 ng mL^−1, and 8000 ng mL^−1 for plasma were prepared independently of those used for the calibration curves. These QC samples were prepared on the day of analysis in the same way as calibration standards.

Series [2] is described as follows: Brain and plasma concentrations after MCAO/reperfusion (BBB assessment). It counts as in vivo, mice. The conditions noted are these: C57BL/6, mouse, ip, 0.5 h after administration, 48 mg kg^−1 i.p., after 1.5 h of MCAO followed by reperfusion; for Kp at 0.5 h: brain / plasma, read-out: CBrain/Cplasma. How it is done: After 1.5 h of MCAO followed by reperfusion, each of 1 and 6c was administered at a dose of 48 mg kg^−1 intraperitoneally to mice, and the brain and plasma concentrations of each compound were measured at 0.5 h after administration. The ratios of brain to plasma concentrations of 1 and 6c were 0.37 and 0.57, respectively, confirming that the BBB permeability of compounds benefited from higher lipophilicity (Table 2 ). The decrease in 6c concentration in vivo may be due to changes in metabolic routes. Tertiary carbon atoms and terminal carbon atoms are easily metabolized through oxidative pathways,^[ [55] ^] so the introduction of isopropyl groups leads to the production of more metabolites, resulting in a decrease in the area under curve (AUC). The metabolites of oligomeric proanthocyanidins and their analogues are quite complex. Although there are a large number of metabolites, most of them have a flavan‐3‐ol core structure and contain many phenolic hydroxyl groups.^[ [56] ^] As mentioned above, phenolic hydroxyl groups are important active functional groups to exert neuroprotective effects, so it can be inferred that metabolites of 6c also have similar activity to 6c. In future work, radiolabeled pharmacokinetic studies and metabolite studies are needed to further elucidate the metabolism of the preferred compound.^[ [57] ^] Pharmacokinetic analyses were performed using a LC‐40D XS HPLC system (Shimadzu, Japan) coupled with a Sciex Triple Quad 5500 mass spectrometer (AB SCIEX, USA). Tested compounds PB3 and 6c were administered by i.p. injection (48 mg kg^−1, formulation solvent: normal saline). Blood samples were drawn from the retro‐orbital vein at 0.083, 0.25, 0.5, 1, 2, 4, 8, and 24 h post‐injection with EDTA dipotassium salt as an anticoagulant. Subsequently, the plasma fractions were collected in Eppendorf tubes and centrifuged at 4000 g for 5 min at 4 °C and stored at −80 °C for analysis. Brain tissue was mixed with four‐fold normal saline for homogenization (10 s per time with a 10 s interval for 3–5 times). Then, the mixture was centrifuged at 4000 g for 5 min at 4 °C, and the supernatant was stored at −80 °C for analysis. For sample preparation, the desired serial concentrations of working solutions were achieved by diluting a stock solution of analyte with 50% methanol in water solution. 2 µL of working solutions were added to 10 µL of the blank C57BL/6 mouse plasma/brain homogenate to achieve calibration standards of 10–10 000 ng mL^−1 (10, 20, 100, 200, 1000, 2000, 4000, 10 000 ng mL^−1) in a total volume of 12 µL. Three quality control samples at 20 ng mL^−1, 1600 ng mL^−1, and 8000 ng mL^−1 for plasma were prepared independently of those used for the calibration curves. These QC samples were prepared on the day of analysis in the same way as calibration standards.

The term viability denotes a per cent measure of how many cells are alive, often set against a control. By AUC(0-inf) is commonly meant the area under the concentration-time curve extrapolated to infinity. Low values mean less exposure, high ones more exposure. Usually AUC(0-t) stands for the area under the concentration-time curve up to a stated or last time point. Higher therefore signals more exposure. For orientation: Cmax means the maximum level reached in the sampled fluid or tissue. As a reminder, the MRT inf is the average time that molecules of a dose stay in the body. Usually half-life stands for the time in which the quantity being followed falls by half. As for `Oc1cc(O)c2c(c1)O[C@H](c1ccc(O)c(O)c1)[C@@H](O)[C@@H]2c1c(O)cc(O)c2c1O[C@H](c1ccc(O)c(O)c1)[C@@H](O)C2` [Compound 1, procyanidin B3], in the series on OGD/R‐treated HT22 cells, the viability at 2 µM is 63.9 ± 3.36% and the viability at 20 µM came out at 70.9 ± 6.71%. Also, the cell viability rate entry with OGD/R‐treated HT22 cells (PB3 at 20 to 400 µM, 24 h treatment) is listed as “significantly improve cell viability rate”. Besides, in series [1], the AUC(0-inf) is 22300 ± 1970 ng·h/mL, the AUC(0-t) was found to be 22200 ± 1940 ng·h/mL, the Cmax was determined as 30400 ± 1790 ng/mL and the MRT inf was determined as 1.42 ± 0.06 h. The half-life in series [1] is 266 ± 20.4 min. In addition, in series [2], the Kp at 0.5 h came out at 0.37. Moreover, in series [2] (brain, read-out: CBrain), the concentration at 0.5 h turned out to be 4790 ± 1610 ng/g. For the same compound, in series [2] (plasma, read-out: Cplasma), the concentration at 0.5 h was determined as 13000 ± 757 ng/mL.

Take `CC(C)c1c(O)cc(O)c2c1O[C@H](c1ccc(O)c(O)c1)[C@@H](O)[C@@H]2c1c(O)cc(O)c2c1O[C@H](c1ccc(O)c(O)c1)[C@@H](O)C2` [Compound 6c, 8‐Isopropyl‐(+)‐Catechin‐(4α,8)‐(+)‐Catechin]: in the series with OGD/R‐treated HT22 cells, the viability at 2 µM was 66 ± 1.97% and the viability at 20 µM was determined as 83.6 ± 4.34%. Further, in series [1], the AUC(0-inf) was 10400 ± 1280 ng·h/mL, the AUC(0-t) was found to be 10200 ± 1250 ng·h/mL, the peak level (Cmax) was 25200 ± 2500 ng/mL and the MRT inf came out at 0.76 ± 0.03 h. For the same compound, the half-life in series [1] is 121 ± 15.6 min. Besides, the Kp at 0.5 h in series [2] was determined as 0.57. Besides, the concentration at 0.5 h in series [2] (brain, read-out: CBrain) came out at 2810 ± 489 ng/g. The concentration at 0.5 h in series [2] (plasma, read-out: Cplasma) amounted to 4960 ± 1590 ng/mL.

The values are drawn from PMC12677652, “Procyanidin B3 and Its Derivatives Alleviate Neuronal Injury by Targeting G3BP1 for Ischemic Stroke Therapy” (Advanced Science, 2025).
